Source: patent publication US9101620B2, “Polymorph of 3-(substituteddihydroisoindolinone-2-yl)-2,6-dioxopiperidine, and pharmaceutical compositions thereof” (Nanjing Cavendish Bio-Engineering Technology Co., Ltd., priority 2009, dated 2015)

Tests used:
[1] = Accelerated test (40° C., 75% relative humidity); type: physicochemical; settings: 40° C. and 75% relative humidity
Description: (§1) The conditions and methods of related substance test involved in this invention were in accordance with HPLC (Appendix VD of Chinese Pharmacopoeia Edition 2005).
(§2) Chromatographic conditions and system applicability: octadecylsilane bonded silica as the filler; 0.01 mol/L of potassium dihydrogen phosphate (adjusted to pH 3.5 by phosphoric acid)-methanol-acetonitrile (80:15:5) as the mobile phase; detection wavelength was 240 nm; the number of theoretical plates should be not less than 2000, calculated according to the peak of 3-(4-amino-1-oxo-1,3-dihydro-2H-isoindole-2-yl)-piperidine-2,6-dione. The resolution of the peak of 3-(4-amino-1-oxo-1,3-dihydro-2H-isoindole-2-yl)-piperidine-2,6-dione from the peaks of adjacent impurities should meet requirements.
(§3) The raw material of Polymorph I of 3-(4-amino-1-oxo-1,3-dihydro-2H-isoindole-2-yl)-piperidine-2,6-dione (hemihydrate) was hermetically packed in plastic bags of polyethylene film and put in thermostatic and humidostatic incubator at 40±2° C. and 75±5% relative humidity for six months. Sample was tested at the end of the 1st, 2nd, 3rd and 6th month respectively and the results were contrasted with that of the zeroth month. Results were listed in Tab. 5. After accelerated test at 40° C. for six months, the X-ray powder diffraction pattern was shown in FIG. 11; DSC diagram was in FIG. 12-1; TGA diagram was in FIG. 12-2
as §3, with “Polymorph II” for “Polymorph I”, “3-(4-amino-1-oxo-1,3-dihydro-2H-isoindole-2-yl)-piperidine-2,6-dione” for “3-(4-amino-1-oxo-1,3-dihydro-2H-isoindole-2-yl)-piperidine-2,6-dione (hemihydrate)”, “Tab. 10.” for “Tab. 5.”, “FIG. 22;” for “FIG. 11;”, “FIG. 23-1;” for “FIG. 12-1;”, “FIG. 23-2” for “FIG. 12-2”
as §3, with “Polymorph III” for “Polymorph I”, “3-(4-amino-1-oxo-1,3-dihydro-2H-isoindole-2-yl)-piperidine-2,6-dione” for “3-(4-amino-1-oxo-1,3-dihydro-2H-isoindole-2-yl)-piperidine-2,6-dione (hemihydrate)”, “Tab. 15.” for “Tab. 5.”, “FIG. 33;” for “FIG. 11;”, “FIG. 34-1;” for “FIG. 12-1;”, “FIG. 34-2” for “FIG. 12-2”

[2] = Photostability test (strong illumination); type: physicochemical; settings: for Appearance / Content / Related substance: 4500±500 Lx; for Variation of appearance and content (in words): photostability (illumination) test, summary
Description: as §1, §2
The Polymorph I of 3-(4-amino-1-oxo-1,3-dihydro-2H-isoindole-2-yl)-piperidine-2,6-dione (hemihydrate) was distributed homogeneously in open petri dish with the thickness of the raw material not more than 5 mm, and the distance was adjusted to make illumination intensity at 4500±500 Lx. Sample was tested at the 5th and 10th day respectively and the results were contrasted with that of the Day 0. Results were listed in Tab. 2. After strong illumination for 10 days, the X-ray powder diffraction pattern was shown in FIG. 5; DSC diagram of the Polymorph I of 3-(4-amino-1-oxo-1,3-dihydro-2H-isoindole-2-yl)-piperidine-2,6-dione (hemihydrate) was in FIG. 6.
The Polymorph II of 3-(4-amino-1-oxo-1,3-dihydro-2H-isoindole-2-yl)-piperidine-2,6-dione was distributed homogeneously in open petri dish with the thickness of the raw material not more than 5 mm and the distance was adjusted to make illumination intensity at 4500±500 Lx. Sample was tested at the 5th and 10th day respectively and the results were contrasted with that of the Day 0. Results were listed in Tab. 7. After strong illumination for 10 days, the X-ray powder diffraction pattern was shown in FIG. 16; DSC diagram was in FIG. 17
The Polymorph III of 3-(4-amino-1-oxo-1,3-dihydro-2H-isoindole-2-yl)-piperidine-2,6-dione was distributed homogeneously in open petri dish with the thickness of the raw material not more than 5 mm and the distance was adjusted to make illumination intensity at 4500±500 Lx. Sample was tested at the 5th and 10th day respectively and the results were contrasted with that of the Day 0. Results were listed in Tab. 12. After strong illumination for 10 days, the X-ray powder diffraction pattern was shown in FIG. 27; DSC diagram was in FIG. 28

Row | Compound | Appearance ([1]; 0 months) | Content ([1]; 0 months) | Related substance ([1]; 0 months) | Appearance ([1]; 1 month) | Content ([1]; 1 month) | Related substance ([1]; 1 month) | Appearance ([1]; 2 months) | Content ([1]; 2 months) | Related substance ([1]; 2 months) | Appearance ([1]; 3 months) | Content ([1]; 3 months) | Related substance ([1]; 3 months) | Appearance ([1]; 6 months) | Content ([1]; 6 months) | Related substance ([1]; 6 months) | Appearance ([2]; 0 days) | Content ([2]; 0 days) | Related substance ([2]; 0 days) | Appearance ([2]; 5 days) | Content ([2]; 5 days) | also measured
1 | Nc1cccc2c1CN(C1CCC(=O)NC1=O)C2=O (single isomer, unassigned) [Polymorph III, 3-(4-amino-1-oxo-1,3-dihydro-2H-isoindole-2-yl)-piperidine-2,6-dione] | off-white powder | 99.86% | 0.07% | off-white powder | 99.81% | 0.07% | off-white powder | 99.76% | 0.07% | off-white powder | 99.71% | 0.08% | off-white powder | 99.62% | 0.08% | off-white powder | 99.86% | 0.07% | off-white powder | 99.85% | Related substance ([2]; 5 days): 0.07%; Appearance ([2]; 10 days): off-white powder; Content ([2]; 10 days): 99.85%; Related substance ([2]; 10 days): 0.07%; Variation of appearance and content (in words) [2]: few significant variation
2 | Nc1cccc2c1CN(C1CCC(=O)NC1=O)C2=O (single isomer, unassigned) [Polymorph II, 3-(4-amino-1-oxo-1,3-dihydro-2H-isoindole-2-yl)-piperidine-2,6-dione] | off-white powder | 99.89% | 0.09% | off-white powder | 99.85% | 0.09% | off-white powder | 99.77% | 0.10% | off-white powder | 99.72% | 0.10% | off-white powder | 99.68% | 0.12% | off-white powder | 99.89% | 0.09% | off-white powder | 99.89% | Related substance ([2]; 5 days): 0.09%; Appearance ([2]; 10 days): off-white powder; Content ([2]; 10 days): 99.88%; Related substance ([2]; 10 days): 0.09%; Variation of appearance and content (in words) [2]: few significant variation
3 | Nc1cccc2c1CN(C1CCC(=O)NC1=O)C2=O (single isomer, unassigned) [Polymorph I, 3-(4-amino-1-oxo-1,3-dihydro-2H-isoindole-2-yl)-piperidine-2,6-dione] | Off-white powder | 99.87% | 0.05% | Off-white powder | 99.85% | 0.05% | Off-white powder | 99.81% | 0.05% | Off-white powder | 99.78% | 0.06% | Off-white powder | 99.75% | 0.07% | off-white powder | 99.87% | 0.05% | off-white powder | 99.85% | Related substance ([2]; 5 days): 0.05%; Appearance ([2]; 10 days): off-white powder; Content ([2]; 10 days): 99.86%; Related substance ([2]; 10 days): 0.05%; Variation of appearance and content (in words) [2]: few significant variation
